Experimental data taken from US11135219B2, “Methods of treating or preventing Zika virus infection” (priority 2017, dated 2021).

Experiments:
PRVABC59 virus [1] = assay: in vivo; format: in vivo, Balb/C mice
Method: (§1) ZIKV viral RNA was detected using RT-qPCR on a C100 Thermal Cycler and the CFX96 Real-Time system (Bio-Rad). Viral RNA (vRNA) was extracted from culture supernatant using a QlAamp Viral RNA Mini kit (Qiagen) and TaqMan Fast Virus 1-Step Master Mix (Life technologies). ZIKV primers and probe (ZIKF: CCGCTGCCCAACACAAG (SEQ ID NO:1); ZIK-R:[…] (SEQ ID NO:2); PCR Probe: ZIK-P: […] (SEQ ID NO:3)) were used for quantitative RT-PCR (RT-qPCR) with the following parameters: 50° C. 30 min, 95° C. 5 min, (95° C. 30 S, 58° C. 1 min)×40 cycles. RNA standard concentrations were determined based on the back calculation with OD values and molecular weights and were generated through serial dilution with R^2>0.95.
(§2) Balb/C mice were obtained from the Jackson Laboratory (Bar Harbor, Me., USA). After acclimatization for four days, groups of animals (n=6 per group) were injected intraperitoneally with 25 mg/kg body weight dose of TPB diluted in saline or saline alone (no drug control). Following three injections at 12 h intervals, 500 PFU of PRVABC59 virus diluted in PBS was inoculated into each mouse by the subcutaneous (SC) route. Blood was collected by retro-orbital bleeding under anesthesia at days 2, 3, 4, 5, and 6 post-infection. Viral genome copies in the plasma were determined by RT-qPCR.

in vivo = format: in vivo, Balb/C mice; conditions: Balb/C, mouse, in vivo, ip, 25 mg/kg
Method: as §1, §2

PRVABC59 virus [2] = assay: PRVABC59 virus growth in NTERRA cells in the presence of TPB; format: cell-based, Zika virus; conditions: human testicular cell line NTERRA
[3] = ATP-based cell viability assay (CellTiter-Glo); conditions: African green monkey (Cercopithecus aethiops), Vero cells, four days, read-out: CC50 (cellular cytotoxicity 50)
Method: A modified ATP based cytopathic effect (CPE) assay was used for this study based on the CPE method for anti-DENV drug development described elsewhere (see, e.g., Che et al., 2009 Int. J. Clin. Exp. Med. 2:363-373). Vero cells (approximately 30,000 per well) were seeded in a black 96-well plate for 24 hours before the experiment. Cell monolayers were treated with various concentrations of the drugs for 4 days at 37° C. The ATP concentration was measured following manufacturer's recommendations using CellTiter-Glo kit from Promega (Madison, Wis.). Luminescence was recorded using a Veritas Microplate Luminometer at 420 nm. The 50% cytotoxic concentration (CC50) was calculated by a non-linear regression analysis of the dose-response curves.

PRVABC59 virus [4] = assay: PRVABC59 virus growth in HTR-8 cells in the presence of TPB; format: cell-based, Zika virus; conditions: human trophoblast cell line HTR-8
Viral E protein = assay: Western blot analysis of E protein expression in virus-infected cells; format: cell-based, Zika virus
Method: FIGS. 3A-3C show validation of the antiviral effect of TPB in the μM range. (FIG. 3A) Cells infected with PRVABC59 virus were incubated in the presence of various concentrations of TPB for 96 hours. Culture supernatants were titrated for viral genome copies (FIG. 3A) and infectious virus (FIG. 3B). Data are from three independent experiments with error bars showing±SEM. Statistical analysis was performed using unpaired two-tailed Student's t-test to determine significance of difference. […]. (FIG. 3C) Western blot analysis of E protein expression in virus-infected cells in the presence of various concentrations of TPB. Relative mobility of molecular mass markers are shown on the left.

Zika virus strain MR766 = assay: Inhibition of MR766 virus growth by TPB; format: cell-based; conditions: μM range TPB concentrations tested
Method: (§3) Vero cells were seeded in a 96-well plate with the density of 6000 cells per well. In the initial screening study, the compound (1 μM)-virus (0.1 PFU/cell) mixture in virus growth medium (VGM) [DMEM containing 2% FBS, PS, 20 mM hydroxyethyl piperazine ethane sulfonic acid (HEPES), 1 mM sodium pyruvate, and non-essential amino acids] was added to the cells and incubated for 72 h. In a separate experiment conducted using 12-well plates, the cells were first infected with the virus at 0.1 PFU/cell and following adsorption, the cells were washed twice in PBS and incubated in VGM containing 1 μM concentrations of the drugs. The cell culture media were collected at 72-96 h post-infection and assayed for infectious virus by plaque assay and viral genome copies by quantitative RT-PCR (RT-qPCR). In all subsequent studies, cells in 12-well plates were infected with ZIKV at MOI of 0.1 PFU/cell and following virus adsorption for 1 h at 37° C., VGM containing various concentrations TPB was added to the cells and incubated as above. Clarified supernatants from the infected cells were then used to determine infectious virus or genome copies as above.

[5] = tested on: Zika virus strain PRVABC59; assay: Inhibition assay: PRVABC59 ZIKV growth in Vero cells (plaque assay, RT-qPCR); format: cell-based
Method: as §3, §1

[6] = Pharmacokinetic study of TPB in mice (plasma LC-MS/MS); format: in vivo, Balb/C mice; conditions: 10-12 h post-injection, intraperitoneal, 5 mg/kg or 25 mg/kg
Method: For PK studies, groups of Balb/C mice (n=3) were injected intraperitoneally with doses of 5 mg/kg or 25 mg/kg of body weight of TPB in 5% dextrose, plasma was collected from the animals at various times post-injection and stored at −80° C. until analysis by LC-MS/MS for TPB concentrations. Plasma drug levels were subjected to noncompartmental analysis (WinNonlin ver. 6.4 Certera Inc., Princeton, N.J.). The predicted steady-state levels>500 ng/ml were estimated using a twelve h dosing of 25 mg/kg dose of the compound in mice.
TPB was dissolved in DMSO at 1 mg/ml. Working standard solutions were then prepared in 50% methanol in water from the stock solution. Standards (an eight-point calibration curve) and quality controls (at three levels) were prepared by spiking the working standard solutions to blank mouse plasma. One hundred μl aliquot of plasma was mixed with 25 μl of internal standard spiking solution (rilpivirine 1000 ng/ml in 50% acetonitrile in water), 1.5 ml ethyl acetate was added and vortexed vigorously for 15 min. […]
An Agilent 1200 HPLC system (Agilent Technologies, CA, USA) coupled with AB Sciex API 3200 Q Trap with an electrospray ionization source (Applied Biosystems, Foster City, Calif., USA) was used. The mass transitions m/z 541.2→330.2 and 541.2→212.2 for analyte and m/z 367.2→195.2 for internal standard were monitored. […]

ZIKV = conditions: cited from earlier work
DENV = conditions: cited from earlier work

Compound: O=C(NC(=S)Nc1ccc(N2CCN(C(=O)c3cccs3)CC2)cc1)c1sc2ccccc2c1Cl [Compound 1, 3-chloro-N-[({4-[4-(2-thienylcarbonyl)-1-piperazinyl]phenyl}amino)carbonothioyl]-1-benzothiophene-2-carboxamide]
- Viral RNA level in plasma, lower than vehicle group (PRVABC59 virus [1]; day 4 post-infection, 25 mg/kg intraperitoneal, 500 PFU ZIKV): ~40 fold
- ZIKV viremia (PRVABC59 virus [1]; immunocompetent mice): reduced ZIKV viremia significantly
- concentration at 2 days post-infection (in vivo): ~270 ng/mL
- PRVABC59 virus growth inhibition in NTERRA (PRVABC59 virus [2]): inhibited the virus growth
- CC50 at 4 days [3]: 19.4 µM
- PRVABC59 virus growth inhibition in HTR-8 (PRVABC59 virus [4]): inhibited the virus growth
- Viral E protein synthesis in infected cells (Viral E protein; 0.5 μM TPB): significantly inhibited
- Viral E protein synthesis in infected cells (Viral E protein; higher concentrations than 0.5 μM TPB): undetectable
- MR766 virus growth inhibition (Zika virus strain MR766): sensitive to inhibition
- Genome copy numbers in supernatants, reduction ([5]; 0.5 μM TPB, 96 hours): over 100 fold
- Infectious virus in supernatants, reduction ([5]; 0.5 μM TPB, 96 hours): over 100 fold
- Virus growth reduction ([5]; 1 μM TPB, 96 hours): over 1000 fold
- ZIKV growth inhibition (genome copies in culture supernatants) vs vehicle-only treated cells ([5]; 1 μM compound, Vero cells, 72 hours): > 99%
- Infectious virus yield inhibition ([5]; 1 μM compound, Vero cells, 96 hours): at least 1000 fold
- ZIKV yield inhibition, side-by-side comparison ([5]; 1 μM, Vero cells, PRVABC59, 96 hours post-infection): over 1000 fold
- Selectivity index 50 (SI50, CC50/IC50) ([5]; Vero cells): 206
- IC50 ([5]; Zika virus, Vero, 96 h, Vero cells, PRVABC59, 96 hours post-infection, read-out: IC50 (infectious virus yield, plaque assay)): 0.094 µM
- TPB plasma level [6]: approximately 100 ng/ml

Compound: CC[C@H](C)[C@H]1O[C@]2(CC[C@@H]1C)C[C@@H]1C[C@@H](C/C=C(\C)[C@@H](O[C@H]3C[C@H](OC)[C@@H](O[C@H]4C[C@H](OC)[C@@H](O)[C@H](C)O4)[C@H](C)O3)[C@@H](C)/C=C/C=C3\CO[C@@H]4[C@H](O)C(C)=C[C@@H](C(=O)O1)[C@]34O)O2 [IVM, Ivermectin]
- Inhibition of ZIKV infection (ZIKV; 10 μM): strongly

Compound: COc1c(C)c2c(c(O)c1C/C=C(\C)CCC(=O)O)C(=O)OC2 [MPA, Mycophenolic acid]
- DENV RNA replication (DENV): inhibit DENV RNA replication
- Inhibition of infection of cells in vitro by ZIKV (ZIKV; 1 μM): over 99%
